Assay results reported in patent publication US20240108623A1, “METHODS OF TREATING CANCER WITH POZIOTINIB” (BOARD OF REGENTS, THE UNIVERSITY OF TEXAS SYSTEM, priority 2021, published 2024).

Key:
[1] = tested on: PDXs harboring EGFR S768dupSVD exon 20 loop insertion mutation; assay: PDX tumor growth; assay type: in vivo, mice; conditions: drug 5 days per week, day 21
[2] = tested on: lung adenocarcinomas harboring EGFR L858R mutations, acquired L718V mutation; assay: Case study of patient treated with second-generation TKI; assay type: in vivo, human; conditions: acquired L718V after first-line osimertinib
Source text: Case studies of patients treated with second-generation TKIs. Patients were consented under the GEMINI protocol (PA13-0589) which was approved in accordance with the MD Anderson Institutional Review Board.

[3] = tested on: exon 20 loop insertion mutations; assay: Ba/F3 drug screening, mutant/WT IC50 by class of EGFR TKI; assay type: cell-based; conditions: Ba/F3 cells expressing exon 20 loop insertion mutations
Experimental: Ba/F3 cell generation, drug screening, and IC50 approximations. Ba/F3 cells were obtained as a gift from Dr. Gordon Mills (MD Anderson Cancer Center), and maintained in RPMI (Sigma) containing 10% FBS, 1% penicillin/streptomycin, and 10 ng/ml recombinant mIL-3 (R&D Biosystems). To establish stable Ba/F3 cell lines, Ba/F3 cells were transduced with retroviruses containing mutant EGFR plasmids for 12-24 hours. Retroviruses were generated using Lipofectamine 2000 (Invitrogen) transfections of Phoenix 293T-ampho cells (Orbigen) with pBabe-Puro based vectors listed below in Table 6. Vectors were generated by GeneScript or Bioinnovatise using parental vectors from Addgene listed below in Table 6.
After 48-72 hours of transduction, 2 μg/ml puromycin (Invitrogen) was added to Ba/F3 cell lines in complete RPMI. To select for EGFR positive cell lines, cells were stained with PE-EGFR (Biolegend) and sorted by FACS. […] Plates were incubated for a minimum of 10 minutes, and bioluminescence was determined using a FLUOstar OPTIMA plate reader (BMG LABTECH). […] Statistical differences between groups were determined by ANOVA as described in the figure legends.
Heatmap generation and spearman correlations of groups. […] Hierarchical clustering was determined by Euclidean distance between Mut/WT ratios. […]

Compound: C=CC(=O)N1CCC(Oc2cc3c(Nc4ccc(Cl)c(Cl)c4F)ncnc3cc2OC)CC1 [Poziotinib]
- sensitivity of Ex20ins mutations in vivo [1]: sensitive
- clinical outcome of patient [2]: clinical benefit of stable disease and tumor shrinkage
- sensitivity of Ex20ins mutations in vitro [3]: sensitive
